Data taken from US5430057A, “Parenteral busulfan for treatment of malignant disease” (priority 1993, dated 1995).
≈ marks a conversion by molar mass, not a printed value. Entries after “also recorded” stand apart in the source; their conditions may differ.

How the values were obtained:
human erythrocytes = test: Hemolysis studies; format: cell-based; conditions: in words
Experimental: The procedure of Reed and Yalkowsky was employed for the studies of hemolytic potential of the different preparations, and the LD50 values of the various formulations were evaluated (Reed et al., 1985).
Variable amounts of whole blood (citrated) were added to 0.05 ml of the drug formulations in ratios of 1:1 (v/v), 1:3, 1:5, 1:7, and 1:9. The mixtures were vortexed for 10 seconds and then incubated for 2 minutes at 25°C. Five ml normal saline was then added to this blend to quench further lysis of the erythrocytes by rendering the preparation nearly isotonic. The mixture was again vortexed for 10 seconds and centrifuged for 5 minutes at 3,000 r.p.m. (Beckman Model TJ-6 Centrifuge, Beckman Instruments Inc., Palo Alto, Calif.). The supernatant was carefully aspirated and discarded. The packed erythrocytes were washed once more at room temperature with one volume of normal saline. After centrifugation, the supernatant was again carefully aspirated and discarded. […] The absorbance of the supernatant was subsequently measured at 540 nm after a 1:3 dilution with distilled water° Normal saline was assayed in parallel as a standard. The fraction of […] was defined as the absorbance reading of the respective drug formulation divided by that of the saline standards (Reed et al., 1985).
The hemolytic potential of the various busulfan formulations was evaluated. […]

[1] = i.p., 2.5% carboxymethylcellulose in water; cited from earlier work
[2] = i.p., cited from earlier work
[3] = room temperature; cited from earlier work
[4] = Stability of busulfan formulations on storage / after mixing; format: physicochemical
Experimental: Stability of the Various Busulfan Formulations. The physical and chemical stabilities of the various parenteral busulfan formulations were examined as follows: First, busulfan was dissolved at a concentration of 25 mg/ml in DMA only ("stock solution") and incubated at 4° C. at 22° C. and at 40°C. Starting at time zero, then weekly up to 10 weeks, samples were withdrawn and analyzed for busulfan concentration by HPLC. Second, the busulfan-DMA was diluted with PEG-400/water to give final concentrations of DMA:PEG-400:water of 20:40:40 and final busulfan concentrations of 2-10 mg/ml. These formulations were subsequently analyzed by HPLC immediately after mixing and then hourly for eight hours. Third, busulfan formulation mixtures were diluted in normal saline to a final busulfan concentration of 1 mg/ml. The preparations were then introduced into infusion bags (Viaflex™ Baxter Healthcare Corp Deerfield, Id.), and allowed to run through a parenteral infusion set at a rate of 1 ml/min. Samples were collected at 0, 0.5, 1.0, 2.0, 5.0, 7.0, 9.0, and 12 hours and analyzed for busulfan by HPLC as above.
The drug was first dissolved in DMA at 25 mg/ml. Different aliquots were stored at 4° C., at 22° C., and at 40°C. From time 0 and then weekly, samples were analyzed for busulfan drug degradation over at least 15 weeks of observation. […] The stability of busulfan in the complete 20% DMA/40% PEG-400/40% water was also studied for the following different busulfan concentrations, 2, 3, 5, 8, and 10 mg/ml. At 2 and 3 mg/ml the busulfan was stable for the duration of the 8 hour observation period in this solvent system.

[5] = cited from earlier work
[6] = Solubility of busulfan in various solvent systems (HPLC); format: physicochemical; conditions: acetone, organic solvent or mixture
Experimental: A known amount of busulfan was equilibrated in the solvent system at 20°C. for predetermined periods of time. An aliquot was then removed and subjected to HPLC assay after an appropriate dilution for determining busulfan concentration and stability.
The derivatized product was separated from the reaction mixture using Sep-Pak™ C 18 solid phase extraction vials (Waters Chromatography Systems Inc., Millford, Mass.).

erythrocytes = conditions: cited from earlier work
[7] = tested on: human KBM-3 myeloid leukemia cells; test: In vitro cytotoxicity, MTT assay; format: cell-based; conditions: for cells killed: 24 hours, 37° C.
Experimental: In vitro Cytotoxicity of Busulfan in the DMA/PEG-400 Vehicle. Human leukemic KBM-3 cells (Anderson, et al., 1992), were incubated for 24 hours in the complete vehicle without the addition of busulfan at different concentrations (0.5%, 1.0%, 2.0%, 3.0% and […], v/v), to assay the cytotoxic properties of the 20% DMA/40% PEG-400 aqueous vehicle by itself (negative controls), or with the addition of busulfan. In parallel, cells in Iscove's modified Dulbecco medium (GIBCO, Grand Island, New York, N.Y.), supplemented with 10% fetal bovine serum, were incubated with busulfan (at 25 μg/ml and 50 μg/ml), in the 20% DMA/40% PEG-400 aqueous solvent (the resulting vehicle concentrations were 1.0 and 2.0% (v/v), respectively), or with busulfan dissolved in a small volume (≤1%, v/v) of acetone (positive controls). After 24 hours, 25 μl of a 5 mg/ml solution of MTT (3, [4,5-dimethylthiazol-2-yl]2,5-diphenyltetrazoliumbromide, obtained from Sigma Chemicals, St. Louis, MO), was added to each sample, and after an additional 2 hours of incubation at 37° C., 100 μl of extraction buffer was added (extraction buffer: 20% (w/v) SDS dissolved to saturation at 37° C. in a solution of equal parts of dimethylformamide and deionized water; the pH was adjusted to 4.7 by the use of acetic acid and 1 N HCL as described (Hansen et al., 1989). After over night incubation at 37° C., the optical densities at 570 nm were measured using a Titer-Tech 96-well multi-scanner, using the extraction buffer as the blank. The cytotoxicity was determined as the difference between the samples as above and the reactivity of cells incubated in PBS alone. All determinations were performed in triplicate.
To study the cytotoxic activity of busulfan in the 20% DMA/40% PEG-400 aqueous vehicle, human KBM-3 myeloid leukemia cells (Andersson et al., 1992), were exposed to either the complete vehicle at various concentrations without or with the addition of busulfan for 24 hours at 37° C. The cytotoxicity was assayed with the MTT assay (Hansen et al., 1989). […]

[8] = Equilibrium solubility studies; format: physicochemical; conditions: anhydrous dma, organic solvent or mixture
Experimental: An excess amount of busulfan was added to each solution and the mixtures were placed on a rotating mixer (Tube Rotator™, Scientific Equipment Products, Baltimore, Md.). […] For the DMA/PEG-400 aqueous vehicle, a slightly modified approach had to be taken, since DMA readily dissolved the ACRO LC 25 filter. After dissolving the busulfan in DMA, the busulfan-DMA solution was mixed with 40% PEG-400/40% water and filtered through a 0.45 μm silver filter (Nuclepore Corp., Pleasanton, Calif.) fitted to a syringe assembly. After derivatization with DDTC, the busulfan concentration was determined by HPLC as above.

[9] = Plasma pharmacokinetics of busulfan, oral tablet, oral solution and i.v. solution; format: in vivo, Sprague-Dawley rats; conditions: in words
From the text: The present example provides the development of an efficient technique for extraction of busulfan from blood plasma, adaptation of the HPLC assay for quantitation of busulfan in the plasma extract, and studies of the in vivo plasma pharmacokinetics of busulfan when administered orally as the commercially available tablet, as an oral solution in a vehicle of 40% PEG-400, and as an intravenous injection when dissolved in a vehicle of 40% PEG-400. A comparison of the plasma pharmacokinetics of busulfan in the rat is also given after i.v. busulfan administration. The drug was dissolved at 3 mg/ml in either acetone or DMSO or the complete 20% DMA/40% PEG-400 aqueous solvent.
Rat plasma (0.2 ml) was spiked with varying concentrations of busulfan (from a stock solution in DMA), to give final drug concentrations of 0.15-3.0 μg/ml. The internal standard, 20 μl, (CGA-112913; in methanol, 20 μg/ml) was then added to the drug-plasma mixtures. After vortexing for 10 seconds, the drug and internal standard were precipitated from the plasma proteins with 0.2 ml acetonitrile with subsequent vortexing for 30 seconds. The busulfan and internal standard were then extracted using 2 ml of ethyl acetate and vortexed for 1 minute. The solutions were centrifuged for 10 minutes and 1 ml of the ethyl acetate layer was evaporated to dryness under compressed air. The busulfan and internal standard were then dissolved in 0.5 ml of distilled water and derivatized with 0.2 ml of an 8.2% (w/v) solution of diethyldithiocarbamic acid sodium and vortexed for 30 seconds.
The busulfan derivative, DDCB (Diethyldithiocarbamoyl butane), was subjected to solid phase extraction with Sep-Pak LC™ cartridges (Millipore Corporation, Bedford, Ill.) under vacuum. The cartridges were conditioned with three 1-ml washes of methanol followed by two 1-ml washes with distilled water. The derivatized solutions were then passed through the cartridges and the cartridges washed twice with 1 ml 50% methanol in distilled water. The DDCB and the internal standard were eluted from the columns using 250-μ1 methanol twice, followed by two washes of 0.5-ml of ethyl acetate. […]

Compound: CS(=O)(=O)OCCCCOS(C)(=O)=O [busulfan, 1,4-bis-(methanesulfonoxyl)butane]
- contribution of busulfan to hemolysis (human erythrocytes): did not add significantly to the overall hemolytic effect; also recorded: insignificant
- local toxicity of intraperitoneal injection [1]: causes significant local tissue damage
- platelet dysfunction ([2]; in polyethyleneglycol, 60 mg/kg): induce platelet dysfunction
- toxicity of intraperitoneal administration [2]: very toxic and causes significant local tissue damage
- solubility in water [3]: 0.025 mg/mL (≈ 0.101 mM)
- onset of degradation ([4]; 25 mg/ml in DMA, 40° C.): around 3 weeks
- degradation at 15 weeks ([4]; 25 mg/ml in DMA, 40° C., 15 weeks, 151200 min): about 50%
- stability in DMSO ([4]; DMSO, in words): rapidly degrades busulfan
- liver toxicity ([5]; oral, high dose combinations): veno-occlusive disease (VOD) of the liver, leading to fatal liver failure
- neurological and gastrointestinal side effects ([5]; oral, high dose): grand mal seizures and severe nausea and vomiting
- myelosuppression ([5]; prolonged administration): occasionally severe, sometimes even irreversible myelosuppression
- solubility [6]: 25 mg/mL (≈ 101 mM)
- hemolysis by busulfan itself (erythrocytes; Bishop et al., 1986): shown to cause hemolysis
- cytotoxic activity in vehicle ([7]; 20% DMA/40% PEG-400 aqueous vehicle vs acetone, in words): retained its cytotoxic activity
- cells killed ([7]; busulfan 25 μg/ml in 20% DMA/40% PEG-400 aqueous vehicle): about 50%
- cells killed ([7]; busulfan 50 μg/ml in 20% DMA/40% PEG-400 aqueous vehicle): approximately 80%
- solubility [8]: 75 mg/mL (≈ 304 mM)
- absorption, non-fasting vs fasting animals ([9]; oral): non-fasting animals seem to absorb more drug than fasting subjects
- bioavailability / plasma concentrations vs oral preparations ([9]; parenteral vs oral): higher after parenteral administration than after oral dosing
- AUC, parenteral vs standard tablet in non-fasting animals ([9]; ratio): about five times higher
- peak plasma concentration, parenteral vs standard tablet in non-fasting animals ([9]; ratio): approximately ten times higher

Compound: cyclodextrins
- hemolysis LD50 (erythrocytes; Yoshida et al., 1988): about 2 % (w/v)
